Patent US6864219B2, “Substituted aryl ketones” (Bayer Aktiengesellschaft, priority 2000, dated 2005)
Like-named read-outs stand apart in the source and are kept apart here.

Columns and labels:
[1] = log P determination by HPLC on reversed-phase column (C 18), EEC Directive 79/831 V.A8; format: physicochemical; conditions: for logP (Physical data, Table 1): labelled a): acidic range, 0.1% aqueous phosphoric acid/acetonitrile gradient, 43° C.
Procedure: The log P values given in Table 1 were determined in accordance with EEC Directive 79/831 V.A8 by HPLC (High Performance Liquid Chromatography) on a reversed-phase column (C 18). Temperature: 43° C.
(a) Mobile phases for the determination in the acidic range: 0.1% aqueous phosphoric acid, acetonitrile; linear gradient of 10% acetonitrile to 90% acetonitrile—the corresponding data in Table 1 are labelled ^a).
(b) Mobile phases for the determination in the neutral range: 0.01 molar aqueous phosphate buffer solution, acetonitrile, linear gradient from 10% acetonitrile to 90% acetonitrile—the corresponding data in Table 1 are labelled ^b).

weeds [2] = assay: Pre-emergence test (Example A), activity against weeds; format: in vivo; conditions: soil sprayed 24 hours after sowing; damage rated after three weeks
Procedure: (§1) To produce a suitable preparation of active compound, 1 part by weight of active compound is mixed with the stated amount of solvent, the stated amount of emulsifier is added and the concentrate is diluted with water to the desired concentration.
Seeds of the test plants are sown in normal soil. After 24 hours, the soil is sprayed with the preparation of active compound such that the particular amount of active compound desired is applied per unit area. The concentration of active compound in the spray liquor is chosen such that the particular amount of active compound desired is applied in 1000 liters of water per hectare.
After three weeks, the degree of damage to the plants is rated in % damage in comparison to the development of the untreated control. The figures denote: • 0%=no effect (like untreated control) • 100%=total destruction

weeds [3] = assay: Post-emergence test (Example B), activity against weeds; format: in vivo; conditions: test plants 5-15 cm sprayed; damage rated after three weeks
Procedure: as §1
Test plants with a height of 5-15 cm are sprayed with the preparation of active compound such that the particular amounts of active compound desired are applied per unit area. The concentration of the spray liquor is chosen so that the particular amounts of active compound desired are applied in 1000 l of water/ha.
After three weeks, the degree of damage to the plants is rated in % damage in comparison to the development of the untreated control.
The figures denote: • 0%=no effect (like untreated control) • 100%=total destruction

[4] = reversed-phase HPLC column (C 18), mobile-phase label not given, read-out: Log P (preparation examples)
[5] = reversed-phase HPLC column (C 18), labelled a): acidic range; read-out: logP)
[6] = reversed-phase HPLC column (C 18), labelled a): acidic range, starting materials of formula (II)/(IIA), read-out: logP (Physical data, Table 2)

chromatographic logP [1, 4] | Compound | activity against weeds, pre-emergence (weeds [2]) | activity against weeds, post-emergence (weeds [3]) | logP (Physical data, Table 1) [1] | other results
1.23 | CCn1ncc(C(=O)c2ccc(S(C)(=O)=O)c(OCCn3nc(C)n(C)c3=O)c2C)c1O [Example 1, 4-{3-[2-(3′,4′-dimethyl-1′,2′,4′-1H-triazolin-5′-on-1′-yl)-ethyloxy]-2-methyl-4-methylsulphonyl-benzoyl}-1-ethyl-5-hydroxy-1H-pyrazole] | strong activity | strong activity |  | 
2.52 | CCOc1nn(COc2c(Cl)ccc(C(=O)C3C(=O)CCCC3=O)c2Cl)c(=O)n1C [Example 2, 2-[3-(3′-ethoxy-4′-methyl-1′,2′,4′-1H-triazolin-5′-on-1′-yl)-methoxy-2,4-dichloro-benzoyl]-1,3-cyclohexanedione] | strong activity | strong activity |  | 
 | O=C1CCCC(O)=C1C(=O)c1ccc(Cl)c(OCn2ccccc2=O)c1Cl [Example 3] | strong activity | strong activity | logP = 2.04^a) | 
 | Cc1nn(CCOc2c(Cl)ccc(C(=O)C3=C(O)CCCC3=O)c2Cl)c(=O)n1C [Example 4] | strong activity | strong activity | logP = 1.92^a) | 
 | CCn1ncc(C(=O)c2ccc(Cl)c(OCCn3nc(C)n(C)c3=O)c2Cl)c1O [Example 5] | strong activity | strong activity | logP = 1.52^a) | 
 | Cc1c(C(=O)C2=C(O)CCCC2=O)ccc(Cl)c1OCCn1nc(C)n(C)c1=O [Example 6] | strong activity | strong activity | logP = 1.93^a) | 
 | CCn1ncc(C(=O)c2ccc(Cl)c(OCCn3nc(C)n(C)c3=O)c2C)c1O [Example 7] | strong activity | strong activity | logP = 1.68^a) | 
 | CSc1ccc(C(=O)C2=C(O)CCCC2=O)c(Cl)c1OCCn1nc(C)n(C)c1=O [Example 8] | strong activity | strong activity | logP = 1.94^a) | 
 | CCn1ncc(C(=O)c2ccc(SC)c(OCCn3nc(C)n(C)c3=O)c2Cl)c1O [Example 9] | strong activity | strong activity | logP = 1.58^a) | 
 | CSc1ccc(C(=O)C2=C(O)CCCC2=O)c(C)c1OCCn1nc(C)n(C)c1=O [Example 10] | strong activity | strong activity | logP = 1.91^a) | 
 | Cc1nn(CCOc2c(S(C)(=O)=O)ccc(C(=O)C3=C(O)CCCC3=O)c2Cl)c(=O)n1C [Example 11] | strong activity | strong activity | logP = 1.65^a) | 
 | CSc1nn(COc2c(Cl)ccc(C(=O)C3=C(O)CCCC3=O)c2Cl)c(=O)n1C [Example 13] |  | strong activity | logP = 2.44^a) | 
 | COCc1nn(CCOc2c(SC)ccc(C(=O)C3=C(O)CCCC3=O)c2Cl)c(=O)n1C [Example 44] |  |  | logP = 2.05^a) | 
 | CCn1ncc(C(=O)c2ccc(SC)c(OC[C@@H]3CCC(=O)N3C)c2Cl)c1O [Example 45] |  |  | (S enantiomer) logP = 1.68^a) | 
 | CSc1ccc(C(=O)C2=C(O)CCCC2=O)c(Cl)c1OC[C@@H]1CCC(=O)N1C [Example 46] |  |  | (S enantiomer) logP = 2.13^a) | 
 | O=C1CC[C@@H](COc2c(Cl)ccc(C(=O)C3=C(O)CCCC3=O)c2Cl)N1 [Example 47] |  |  | (S enantiomer) logP = 1.95^a) | 

chromatographic logP [1, 4] | Compound | activity against weeds, pre-emergence (weeds [2]) | activity against weeds, post-emergence (weeds [3]) | logP (Physical data, Table 1) [1] | other results
 | CCn1ncc(C(=O)c2ccc(Cl)c(OC[C@@H]3CCC(=O)N3)c2Cl)c1O [Example 48] |  |  | (S enantiomer) logP = 1.51^a) | 
 | CCn1ncc(C(=O)c2ccc(Br)c(OC[C@@H]3CCC(=O)N3)c2Br)c1O [Example 60] |  |  | (S enantiomer) logP = 1.56^a) | 
 | O=C1CC[C@@H](COc2c(Br)ccc(C(=O)C3=C(O)CCCC3=O)c2Br)N1 [Example 61] |  |  | (S enantiomer) logP = 2.02^a) | 
1.94 | COC(=O)c1ccc(Cl)c(OCCn2nc(C)n(C)c2=O)c1C [II-1, methyl 4-chloro-3-[2-(3′,4′-dimethyl-1′,2′,4′-1H-triazolin-5′-on-1′-yl)-ethoxy]-2-methyl-benzoate] |  |  |  | 
1.89 | COC(=O)c1ccc(SC)c(OCCn2nc(C)n(C)c2=O)c1C [II-2, methyl 3-[2-(3′,4′-dimethyl-1′,2′,4′-1H-triazolin-5′-on-1′-yl)-ethoxy]-2-methyl-4-methylthio-benzoate] |  |  |  | 
1.76 | CCOC(=O)c1ccc(S(C)(=O)=O)c(OCCn2nc(C)n(C)c2=O)c1C [II-3, ethyl 3-[2-(3′,4′-dimethyl-1′,2′,4′-1H-triazolin-5′-on-1′-yl)-ethoxy]-2-methyl-4-methylsulphonyl-benzoate] |  |  |  | 
1.37 | Cc1c(C(=O)O)ccc(Cl)c1OCCn1nc(C)n(C)c1=O [II-4, 4-chloro-3-[2-(3′,4′-dimethyl-1′,2′,4′-1H-triazolin-5′-on-1′-yl)-ethoxy]-2-methyl-benzoic acid] |  |  |  | 
1.24 | Cc1nn(CCOc2c(Cl)ccc(C(=O)Cl)c2Cl)c(=O)n1C [II-5, 2,4-dichloro-3-[2-(3′,4′-dimethyl-1′,2′,4′-1H-triazolin-5′-on-1′-yl)-ethoxy]-2-benzoyl chloride] |  |  |  | 
2.77 | CCOC(=O)c1ccc(Cl)c(OCn2nc(OCC)n(C)c2=O)c1Cl [II-6, ethyl 3-(3′-ethoxy-4′-methyl-1′,2′,4′-1H-triazolin-5′-on-1′-yl)-methoxy-2,4-dichloro-benzoate] |  |  |  | 
1.74 | CCOc1nn(COc2c(Cl)ccc(C(=O)O)c2Cl)c(=O)n1C [II-8, 3-(3′-ethoxy-4′-methyl-1′,2′,4′-1H-triazolin-5′-on-1′-yl)-methoxy-2,4-dichloro-benzoic acid] |  |  |  | 
 | CCOC(=O)c1ccc(Cl)c(OCCn2nc(SC)n(C)c2=O)c1Cl [II-35, ethyl 2,4-dichloro-3-[2-(3-methylthio-4-methyl-5-oxo-1,2,4-triazolin-1-yl)-ethoxy]-benzoate] |  |  |  | chromatographic logP [1, 5]: 2.66; chromatographic logP [1, 6]: 2.66
 | CCOC(=O)c1ccc(Cl)c(OC[C@@H]2CCC(=O)N2)c1Cl [II-61, ethyl (S)-2,4-dichloro-3-[(2-oxo-pyrrolidin-5-yl)-methoxy]-benzoate] |  |  |  | chromatographic logP [1, 5]: 2.14; chromatographic logP [1, 6]: 2.15
 | CCOC(=O)c1ccc(Cl)c(OCCBr)c1Cl [ethyl 2,4-dichloro-3-(2-bromo-ethoxy)-benzoate] |  |  |  | chromatographic logP [1, 5]: 3.98
3.52 | COC(=O)c1ccc(Cl)c(OCCCl)c1C [methyl 4-chloro-3-(2-chloro-ethoxy)-2-methyl-benzoate] |  |  |  | 
2.14 | COC(=O)c1ccc(Cl)c(O)c1C [methyl 4-chloro-3-hydroxy-2-methyl-benzoate] |  |  |  | 
